In PMC11357446, “Searching for Novel HDAC6/Hsp90 Dual Inhibitors with Anti-Prostate Cancer Activity: In Silico Screening and In Vitro Evaluation” (Pharmaceuticals, 2024):
Like-named read-outs stand apart in the source and are kept apart here.

Experiments:
[1] = test system: acetylated tubulin (Ac-Tub) in LNCaP cells; assay: Western blot of acetylated α-Tubulin in LNCaP cells; format: cell-based, human; details: 24 h at GI50 concentration, normalized with Tubulin
Description: To assess whether the observed antiproliferative activity of the selected compounds was a consequence of HDAC6-targeting, we examined the effect of the cell treatments on the expression levels of acetylated tubulin (Ac-Tub), a well-known HDAC6 target. LNCaP and PC-3 cells were treated with the tested compounds at their GI50 concentrations, and SDS-PAGE and western blot were performed. In addition, the acetylation levels of histone H3, which are mainly regulated by HDAC1, were also evaluated in order to exclude potential class I-HDAC off-target activities. We used Tubastatin-A and Geldanamycin as reference controls for cellular effects resulting from HDAC6- and Hsp90-inhibition, respectively. The results in Figure 2 show a significant increase in α-Tubulin acetylation in LNCaP cells after treatments with compounds 8, 11 and 18. Indeed, these compounds triggered a 2.9-, 5.1-, and 2.5-fold increase, respectively, compared to the control (DMSO). […].
Figure 2 Western blot analysis and relative quantification of the expression levels of acetylated-Tubulin (Ac-TUB), acetylated H3 (Ac-H3), and HSP70 in LNCaP (A,B) and PC-3 (C,D) cells treated for 24 h at GI50 concentration. Tubastatin-A was used as HDAC6-specific positive control, Geldanamycin (GELDA) as HSP90-specific positive control, and SAHA as pan-HDAC inhibitor. Protein expression was normalized with Tubulin levels (Ac-TUB and HSP70) or total H3 (Ac-H3). Quantification is reported as fold change in treated cells versus DMSO control (CTR), arbitrarily set at 1 (one sample t-test p-values: * p < 0.05, ** p < 0.01, *** p < 0.001, **** p < 0.0001; n = 3).
Cell treatment. PC-3 and LNCaP cells were grown in 12-well tissue-culture plates and treated with test compounds at the evaluated GI50 concentration for each candidate inhibitor for 24 h. DMSO was used as a negative control, while Tubastatin-A and Geldanamycin were used as positive controls for HDAC6 and Hsp90 inhibition, respectively. Vorinostat (SAHA) was used as a pan-HDACi control. […] Protein quantitation was performed with Pierce Detergent Compatible Bradford Assay (#23246, Thermo Fisher Scientific, MA, USA), and equivalent amounts of cellular extracts were resolved by SDS-PAGE, transferred to PVDF or Nitrocellulose membrane with Trans-Blot Turbo Transfer System (Bio-Rad, Hercules, CA, USA), and immunoblotted with the following primary antibodies, diluted 1:1000 in 1× TBS with 1 mg/mL BSA: Anti-Histone H3 (#PA5-16183, Invitrogen, Thermo Fisher Scientific, MA, USA), Anti-acetylated histone H3 (#sc-518011, Santa Cruz Biotechnology, Inc., Dallas, TX, USA), Anti-Tubulin (#E-AB-20073, Elabscience, Houston, TX, USA), Anti-acetylated α-tubulin (#sc-23950, Santa Cruz), and Anti-HSP70 (#4872S, Cell Signaling Technology, Inc., Danvers, MA, USA). […]

[2] = test system: LNCaP prostate cancer cells; assay: Cell viability assay (PrestoBlue) on LNCaP cells; format: cell-based, human; details: 72 h treatment, PrestoBlue, mean of three independent experiments ± SEM, read-out: LNCaP GI50
Description: The human prostate cancer cell line PC-3 (ATCC Cat# CRL-1435) was grown in Ham’s F12 (Biowest, Nuaillé, France) medium, while the human prostate cancer cell line LNCaP (ATCC Cat# CRL-1740) was grown in RPMI 1640 (Biowest, Nuaillé, France) medium. Both media were supplemented with 10% Fetal Bovine Serum (FBS, Gibco, Fisher Scientific Italia, Segrate, Italy), 2 mM glutamine, 100 U/mL penicillin, and 100 μg/mL streptomycin. PC-3 and LNCaP cells were maintained at 37 °C in a humidified 5% CO2 atmosphere.
PC-3 and LNCaP cells were seeded at a density of 4000 and 6000 cells/well into a 96-well plate, respectively, together with a calibration curve of known cell numbers. The following day, the cells were treated with the indicated test compounds at different concentrations starting at 75μM with 2-fold serial dilutions. Cell viability was evaluated after 72h by colorimetric MTT (PC-3) or PrestoBlue™ (LNCaP) cell viability reagents. A total of 0.5 mg/mL of thiazolyl blue tetrazolium bromide (MTT) (Sigma-Aldrich, St. Louis, MO, USA) in Ham’s F12 medium was added to the wells, and the plate was incubated at 37 °C for 2 h. Medium containing unconverted MTT was removed, and 100 μL of MTT solvent (4 mM HCl, 0.1% NP40, in isopropyl alcohol) was added to the wells in order to solubilize MTT crystals. After 15 min of incubation at room temperature, the absorbance values at 570 nm were obtained with a Multiskan FC Microplate Photometer (Thermo Fisher Scientific, Waltham, MA, USA). PrestoBlue reagent (#A13261, Thermo Fisher Scientific, Waltham, MA, USA) was added to the medium (1:10 v/v) and incubated for 1 h at 37 °C. Cell viability was calculated by quantifying PrestoBlue reduction by measuring the absorbance at 570 and 620 nm, according to the manufacturer’s protocol. The viability of untreated cells was arbitrarily set at 100%, and the concentration at which cellular growth is inhibited by 50% (GI50) was determined. Three independent experiments were performed.

| GI50 [2] [µM] | GI50 ([2]; Homo sapiens, LNCaP, 72 h) [µM] | Structure (SMILES) | α-Tubulin acetylation, fold increase compared to the control (DMSO) [1] [fold] |
| --- | --- | --- | --- |
| 51.6 ± 3.7 | ~50 | O=C(c1cc(OCc2ccccc2)ccc1O)N1CCC(c2noc(C(F)(F)F)n2)CC1 [Compound 8] | 2.9 |
| – | 41.3 ± 8.7 | CC(C)[C@H](C(=O)NCc1ccc(C(=O)NO)cc1)N1Cc2ccccc2C1=O [Compound 11] | 5.1 |
| – | > 75 | O=C(Nc1ncccc1O)c1ccc(-c2noc(C(F)(F)F)n2)cc1 [Compound 18] | 2.5 |
